39 molecules from patent US20250221966A1, “RXFP1 AGONISTS” (BRISTOL-MYERS SQUIBB COMPANY, priority 2021, published 2025) can be followed below.

The assay concerns the target T1, human RXFP1 (Homo sapiens, UniProt Q9HBX9).
T1 construct: expressed in transfected cells
T1 sequence (Q9HBX9 1-757): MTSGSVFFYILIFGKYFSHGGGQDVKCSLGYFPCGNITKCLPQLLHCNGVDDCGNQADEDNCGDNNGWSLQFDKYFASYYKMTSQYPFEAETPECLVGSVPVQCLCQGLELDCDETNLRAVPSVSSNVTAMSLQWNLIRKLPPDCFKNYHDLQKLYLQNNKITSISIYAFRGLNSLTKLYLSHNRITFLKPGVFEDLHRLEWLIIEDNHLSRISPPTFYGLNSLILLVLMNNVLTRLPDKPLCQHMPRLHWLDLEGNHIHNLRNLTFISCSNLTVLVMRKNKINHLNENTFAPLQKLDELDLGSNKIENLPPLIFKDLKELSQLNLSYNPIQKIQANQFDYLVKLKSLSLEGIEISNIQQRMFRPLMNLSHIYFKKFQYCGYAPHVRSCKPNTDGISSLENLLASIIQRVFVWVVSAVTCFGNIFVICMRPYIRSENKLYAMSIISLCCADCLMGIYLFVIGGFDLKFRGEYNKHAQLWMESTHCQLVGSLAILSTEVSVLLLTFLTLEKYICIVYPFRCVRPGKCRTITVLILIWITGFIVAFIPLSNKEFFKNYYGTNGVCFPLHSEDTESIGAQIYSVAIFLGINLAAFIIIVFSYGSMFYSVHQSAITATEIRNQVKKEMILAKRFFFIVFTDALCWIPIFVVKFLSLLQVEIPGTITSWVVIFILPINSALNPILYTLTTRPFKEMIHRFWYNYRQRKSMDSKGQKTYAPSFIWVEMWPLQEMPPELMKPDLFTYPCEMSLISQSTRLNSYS
The assay can be described thus: RXFP1 cAMP assay (hRXFP1 HEK293 cAMP assay, HTRF). The assay is classed as cell-based. As to conditions: HEK293 cells stably expressing human RXFP1, 30 min at room temperature, read-out: cAMP hRXFP1 HEK293 Assay EC50. On the procedure: RXFP1 Cyclic Adenosine Monophosphate (cAMP) Assays. […] Cells were dissociated and suspended in assay buffer. The assay buffer was HBSS buffer (with calcium and magnesium) containing 20 mM HEPES, 0.05% BSA, and 0.5 mM IBMX. Cells (3000 cells per well, except 1500 cell per well for HEK293 cells stably expressing human RXFP1) were added to 384-well Proxiplates (Perkin-Elmer). Cells were immediately treated with test compounds in DMSO (2% final) at final concentrations in the range of 0.010 nM to 50 μM. Cells were incubated for 30 min at room temperature. The level of intracellular cAMP was determined using the HTRF HiRange cAMP assay reagent kit (Cisbio) according to manufacturer's instructions. Solutions of cryptate conjugated anti-cAMP and d2 fluorophore-labelled cAMP were made in a supplied lysis buffer separately. Upon completion of the reaction, the cells were lysed with equal volume of the d2-cAMP solution and anti-cAMP solution. […] The potency and activity of a compound to […] cAMP production was then determined by fitting to a 4-parametric logistic equation from a plot of cAMP level versus compound concentrations.
Take `CC[C@@H](NC(=O)[C@@H]1[C@H](NC(=O)c2cc(C3=NOC4COCC34)ccc2OC)[C@@H]2CC[C@H]1/C2=C/C1CC1)C1CCC1` (stereo partly drawn) [Example 578]: the EC50 was 70.8 nM. In the case of `COc1ccc(C2=NOC3CC(CO)CC23)cc1C(=O)N[C@H]1[C@@H](C(=O)Nc2ccc(F)c(C(F)(F)F)c2)[C@H]2CC[C@@H]1C2CC(F)(F)F` (stereo partly drawn) [compound 550] it was 34.9 nM; in that of `CCC(NC(=O)[C@@H]1[C@H](NC(=O)c2cc(C3=NOC4COCC34)ccc2OC)[C@@H]2CC[C@H]1/C2=C/C1CC1)c1ccccc1C` (single isomer, unassigned) [compound 652], 278 nM. `COc1ccc(C2=NOC3COCC23)cc1C(=O)N[C@H]1[C@@H](C(=O)NCc2c(Cl)cccc2Cl)[C@H]2CC[C@@H]1/C2=C\C1CC1` (stereo partly drawn) [compound 570]: the EC50 was found to be 62.7 nM. For the molecule `COc1ccc(-c2cc(C(=O)O)ccc2F)cc1C(=O)N[C@@H]1C2CCC(/C2=C/C2CC2)[C@@H]1C(=O)NC1CC(F)(F)C1` (stereo partly drawn) [compound 304], the EC50 came out at 1710 nM. In the case of `COc1ccc(C2=NOC3COCC23)cc1C(=O)N[C@H]1[C@@H](C(=O)NCc2ccccc2OC(F)(F)F)[C@H]2CC[C@@H]1/C2=C\C1CC1` (stereo partly drawn) [compound 588], the EC50 was 82 nM.

In the case of `COc1cc(F)c(F)cc1C(=O)N[C@@H]1C2CCC(/C2=C/c2ccccc2)[C@@H]1C(=O)Nc1cccc(S(C)(=O)=O)c1` (stereo partly drawn) [compound 139], the EC50 is 550 nM.

With `O=C(NC1CCC1)OC(c1ccc(F)c(-c2ccc(OCc3ccccc3)c(C(=O)N[C@@H]3C4CCC(/C4=C/C4CC4)[C@@H]3C(=O)Nc3ccc(F)c(C(F)(F)F)c3)c2)c1)C(F)(F)F` (stereo partly drawn) [compound 252], the EC50 is 11 nM. As to `CCOC(=O)Cn1cc(-c2ccc(OC)c(C(=O)N[C@@H]3C4CCC(/C4=C/c4ccccc4)[C@@H]3C(=O)Nc3ccc(F)c(C(F)(F)F)c3)c2)cn1` (stereo partly drawn) [compound 339], the EC50 was found to be 67 nM. Consider `O=C(N[C@H]1[C@@H](C(=O)Nc2ccc(F)c(C(F)(F)F)c2)[C@H]2CC[C@@H]1/C2=C\C1CC1)c1cc(C2=NOC3CC(CO)CC23)ccc1F` (single isomer, unassigned) [compound 692], for which the EC50 is 789 nM. In the case of `COc1ccc(C2=NOC(CCO)C2)cc1C(=O)N[C@@H]1C2CCC(/C2=C/C2CC2)[C@@H]1C(=O)Nc1ccc(F)c(C(F)(F)F)c1` (stereo partly drawn) [compound 399] it was 42 nM; in that of `COc1ccc(-c2cc(C(=O)NS(=O)(=O)c3ccccc3)ccc2F)cc1C(=O)N[C@@H]1C2CCC(C2=C(C)C)[C@@H]1C(=O)Nc1ccc(F)c(C(F)(F)F)c1` (stereo partly drawn) [Example 150], 190 nM. The figure for `COc1ccc(-c2cc(C(C)(C)O)on2)cc1C(=O)N[C@@H]1C2CCC(/C2=C/C2CC2)[C@@H]1C(=O)Nc1ccc(F)c(C(F)(F)F)c1` (stereo partly drawn) [compound 425] is 19 nM; for `COc1cc(F)c(F)cc1C(=O)N[C@@H]1C2CCC(/C2=C/C=C/CCCc2ccccc2)[C@@H]1C(=O)Nc1ccc(F)c(C(F)(F)F)c1` (stereo partly drawn) [compound 37] it is 15 nM. On to `COc1ccc(-c2ccc(C(=O)O)cc2)cc1C(=O)N[C@H]1[C@@H](C(=O)Nc2ccc(F)c(C(F)(F)F)c2)[C@H]2CC[C@@H]1/C2=C/c1ccccc1` [compound 94], for which the EC50 came to 400 nM.

For `COc1c(F)cc(C2=NOC3CC(CO)CC23)cc1C(=O)N[C@@H]1C2CCC(/C2=C/C2CC2)[C@@H]1C(=O)NC12CC(C#N)(C1)C2` (stereo partly drawn) [compound 772], the EC50 is 3.8 nM. As to `COc1cc(F)c(F)cc1C(=O)N[C@@H]1C2CCC(/C2=C/c2cccc(-c3ccccc3)c2)[C@@H]1C(=O)Nc1ccc(F)c(C(F)(F)F)c1` (stereo partly drawn) [compound 15], the EC50 is 110 nM.

As for `COc1ccc(-c2cc(C(=O)O)ccc2F)cc1C(=O)N[C@@H]1C2CCC(/C2=C/C2CC2)[C@@H]1C(=O)N[C@@H](C)c1ccccc1C(F)(F)F` (stereo partly drawn) [compound 262], the EC50 was 139 nM. For `COC(=O)N1CCC=C(c2ccc(OC)c(C(=O)N[C@@H]3C4CCC(C4=C(C)C)[C@@H]3C(=O)Nc3ccc(F)c(C(F)(F)F)c3)c2)C1` (stereo partly drawn) [Example 134], the concentration for a half-maximal effect (EC50) came out at 1400 nM. With `COc1cc(F)c(F)cc1C(=O)N[C@@H]1C2CCC(/C2=C/Br)[C@@H]1C(=O)Nc1ccc(F)c(C(F)(F)F)c1` (stereo partly drawn) [Example 11], the EC50 came out at 230 nM. In the case of `COc1ccc(-c2cc([C@H](C)O)on2)cc1C(=O)N[C@H]1[C@@H](C(=O)Nc2ccc(F)c(C(F)(F)F)c2)[C@H]2CC[C@@H]1/C2=C\C1CC1` [compound 465] it was 3.5 nM; in that of `COc1ccc(C2=NOC3COCC23)cc1C(=O)N[C@H]1[C@@H](C(=O)NCCC2CCC2)[C@H]2CC[C@@H]1/C2=C\C1CC1` (stereo partly drawn) [compound 648], 242 nM; in that of `COc1c(F)cc(C2=NOC3CC(CO)CC23)cc1C(=O)N[C@H]1[C@@H](C(=O)N[C@H](C)C2(C)CC(F)(F)C2)[C@H]2CC[C@@H]1/C2=C\C1CC1` (stereo partly drawn) [compound 870], 2.2 nM. Consider `COc1ccc(C2=NOC3COCC23)cc1C(=O)N[C@H]1[C@@H](C(=O)NC2CCOC(C)(C)C2)[C@H]2CC[C@@H]1/C2=C\C1CC1` (single isomer, unassigned) [compound 679], for which the EC50 was determined as 563 nM.

With `COc1ccc(-c2cc(C(O)C(=O)O)ccc2F)cc1C(=O)NC1C2CCC(/C2=C/C2CCCC2)C1C(=O)Nc1ccc(F)c(C(F)(F)F)c1` (stereo not drawn) [compound 355], the 50% effective concentration (EC50) was determined as 3 nM. On to `COc1ccc(C2CCN(CC(C)(C)O)C2)cc1C(=O)N[C@@H]1C2CCC(C2=CC2CC2)[C@@H]1C(=O)Nc1ccc(F)c(C(F)(F)F)c1` (stereo partly drawn) [compound 601], for which the EC50 was 108 nM. For `COc1cc(F)c(F)cc1C(=O)N[C@@H]1C2CCC(/C2=C/c2ccc3ccccc3c2)[C@@H]1C(=O)Nc1ccc(F)c(C(F)(F)F)c1` (stereo partly drawn) [compound 18], the EC50 is 630 nM. Regarding `COc1ccc(-c2cc(C(NC(=O)COc3ccccc3)C(=O)O)ccc2F)cc1C(=O)N[C@@H]1C2CCC(/C2=C/C(F)(F)F)[C@@H]1C(=O)Nc1ccc(F)c(C(F)(F)F)c1` (stereo partly drawn) [compound 244], the EC50 turned out to be 7 nM. On to `CCOC(=O)c1ccnn1-c1ccc(OC)c(C(=O)N[C@@H]2C3CCC(/C3=C/C(F)(F)F)[C@@H]2C(=O)Nc2ccc(F)c(C(F)(F)F)c2)c1` (stereo partly drawn) [compound 344], for which the EC50 is 757 nM. Take `COc1cc(F)c(F)cc1C(=O)N[C@@H]1C2CCC(/C2=C\c2ccccc2)[C@]1(F)C(=O)Nc1ccc(F)c(C(F)(F)F)c1` (stereo partly drawn) [Example 52]: the EC50 came to 3000 nM.

For the molecule `C=C(C)/C=C1\C2CCC1[C@H](C(=O)Nc1ccc(F)c(C(F)(F)F)c1)[C@@H]2NC(=O)c1cc(F)c(F)cc1OC` (stereo partly drawn) [compound 43], the EC50 came out at 70 nM.

`COCCN1CCCC1c1ccc(OC)c(C(=O)N[C@@H]2C3CCC(C3=CC3CC3)[C@@H]2C(=O)Nc2ccc(F)c(C(F)(F)F)c2)c1` (stereo partly drawn) [compound 666]: the EC50 amounted to 373 nM. In the case of `COc1ccc(-c2cc([C@H](OC(=O)NC3CCC3)C(F)(F)F)ccc2F)cc1C(=O)N[C@@H]1C2CCC(/C2=C/C2CC(F)(F)C2)[C@@H]1C(=O)Nc1ccc(F)c(C(F)(F)F)c1` (stereo partly drawn) [compound 359], the EC50 is 2 nM. The figure for `COc1ccc(-c2cc(C(=O)O)ccc2F)cc1C(=O)N[C@@H]1C2CCC(/C2=C/c2cn(C)nn2)[C@@H]1C(=O)Nc1ccc(F)c(C(F)(F)F)c1` (stereo partly drawn) [compound 327] is 2040 nM; for `COc1ccc(-c2cc(C(OC(=O)Nc3ccccc3)C(=O)O)ccc2F)cc1C(=O)N[C@@H]1C2CCC(/C2=C/C(F)(F)F)[C@@H]1C(=O)Nc1ccc(F)c(C(F)(F)F)c1` (stereo partly drawn) [compound 205] it is 1 nM. On to `COc1ccc(C2=NOC3COCC23)cc1C(=O)N[C@H]1[C@@H](C(=O)NCc2ccccc2C#N)[C@H]2CC[C@@H]1/C2=C\C1CC1` (stereo partly drawn) [compound 613], for which the concentration giving a half-maximal response (EC50) stood at 137 nM.

For the molecule `COc1ccc(-c2cc([C@H](OC(=O)NC3CCC3)C(F)(F)F)ccc2F)cc1C(=O)N[C@H]1[C@@H](C(=O)Nc2ccc(F)c(C(F)(F)F)c2)[C@H]2CC[C@@H]1/C2=C\C[C@@H](O)C(F)(F)F` [compound 932], the EC50 turned out to be 3.9 nM. With `COc1ccc(C2=NO[C@H]3CC(CO)C[C@@H]23)cc1C(=O)N[C@H]1[C@@H](C(=O)Nc2ccc(F)c(C(F)(F)F)c2)[C@H]2CC[C@@H]1/C2=C\CC1CCC1` (stereo partly drawn) [compound 837], the EC50 is 4.3 nM. In the case of `COc1ccc(-c2cc(C(=O)O)ccc2F)cc1C(=O)N[C@@H]1C2CCC(/C2=C/C2CC2)[C@@H]1C(=O)NC(C)C` (stereo partly drawn) [compound 300], the EC50 turned out to be 575 nM.
